The values that follow are results of earlier work, collected in patent US20240009304A1, “USE OF NGF ANTIBODY IN CIPN PAIN” (Dartsbio Pharmaceuticals Ltd., priority 2020, published 2024).

Molecules are shown by their SMILES.

For one data set, the system named is CIPN pain. The settings on record: background statement; cited from earlier work.
A further data set has as its system neuronal 5-HT reuptake. The conditions noted are these: preclinical studies, background; cited from earlier work.
For another data set, the system named is neuronal NE reuptake. The settings on record: preclinical studies, background; cited from earlier work.
The test system of the next data set is dopamine reuptake. The conditions noted are these: preclinical studies, background; cited from earlier work.
For data set [1], the system named is dopaminergic receptor, adrenergic receptor, cholinergic receptor, histaminergic receptor, opioid receptor, glutamate receptor and GABA receptor. The settings on record: in vitro study, background; cited from earlier work.
The next data set deals with monoamine oxidase. The conditions noted are these: background; cited from earlier work.

Take `CNCC[C@H](Oc1cccc2ccccc12)c1cccs1` [Duloxetine]: in the data set with CIPN pain, the “effect in the treatment of CIPN pain” value is “proven to be effective”. Further, the “neuronal 5-HT reuptake inhibition” value with neuronal 5-HT reuptake is given as “strong inhibitor”. For the same molecule, in the data set with neuronal NE reuptake, the “neuronal NE reuptake inhibition” value is given as “strong inhibitor”. The “inhibitory effect on dopamine reuptake” value with dopamine reuptake is recorded as “relatively weak”. In addition, the affinity with receptors entry in data set [1] is recorded as “no obvious affinity”. For the same molecule, the “inhibition of monoamine oxidase” value in the data set with monoamine oxidase was “does not inhibit”.

For `CN(C)CCC=C1c2ccccc2CCc2ccccc21` [amitriptyline], in the data set on CIPN pain, the “effect in the treatment of CIPN pain” value is reported as “do not seem to be more effective than placebo”.

Take `NCC1(CC(=O)O)CCCCC1` [gabapentin]: in the data set with CIPN pain, the “effect in the treatment of CIPN pain” value is reported as “do not seem to be more effective than placebo”.

`CC(C)C[C@H](CN)CC(=O)O` [pregabalin]: the “effect in the treatment of CIPN pain” value in the data set with CIPN pain is reported as “do not seem to be more effective than placebo”.
